The text below walks through data of ChEMBL document CHEMBL1143657, “Saucerneol B derivatives as human acyl-CoA: cholesterol acyltransferase inhibitors” (Bioorg Med Chem Lett, 2005).

Each structure is given as a SMILES string.

In one assay the target is T1, Sterol O-acyltransferase 1 (Homo sapiens) (UniProt P35610).
T1 sequence (whole entry): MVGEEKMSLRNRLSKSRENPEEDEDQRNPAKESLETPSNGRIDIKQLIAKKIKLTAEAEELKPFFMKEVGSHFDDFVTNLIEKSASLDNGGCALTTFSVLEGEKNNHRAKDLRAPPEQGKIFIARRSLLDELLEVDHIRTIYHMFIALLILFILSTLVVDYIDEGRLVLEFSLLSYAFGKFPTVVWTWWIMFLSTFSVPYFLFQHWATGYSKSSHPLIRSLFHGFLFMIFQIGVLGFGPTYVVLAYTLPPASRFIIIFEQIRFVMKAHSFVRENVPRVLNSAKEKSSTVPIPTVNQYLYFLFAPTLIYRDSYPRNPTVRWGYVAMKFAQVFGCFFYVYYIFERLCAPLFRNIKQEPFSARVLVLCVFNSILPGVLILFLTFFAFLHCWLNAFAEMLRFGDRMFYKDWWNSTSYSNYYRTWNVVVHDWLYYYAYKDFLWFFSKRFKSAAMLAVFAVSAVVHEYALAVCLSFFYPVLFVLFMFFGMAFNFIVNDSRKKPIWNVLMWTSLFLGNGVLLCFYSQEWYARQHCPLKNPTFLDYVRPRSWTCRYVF
The experiment in a line: In vitro inhibition of human Acyl coenzyme A:cholesterol acyltransferase 1 expressed in Hi5 cells. Conditions: BTI-TN-5B1-4, concentration not given here.
The term inhibition denotes the relative decrease from the control value, in per cent. A higher inhibition goes with a strong effect. In turn, `CCCCCCCCOC(c1ccc2c(c1)OCO2)C(OC)Oc1ccc([C@H]2O[C@@H](c3ccc(OC)c(OC)c3)[C@@H](C)[C@H]2C)cc1OC` (some centres not stated) returned an inhibition of 44%.

Regarding `CCCCCCCCCOC(c1ccc2c(c1)OCO2)C(OC)Oc1ccc([C@H]2O[C@@H](c3ccc(OC)c(OC)c3)[C@@H](C)[C@H]2C)cc1OC` (some centres not stated), the inhibition was 25%.

A further assay addresses T2, Sterol O-acyltransferase 2 (Homo sapiens) (UniProt O75908).
T2 sequence (whole entry): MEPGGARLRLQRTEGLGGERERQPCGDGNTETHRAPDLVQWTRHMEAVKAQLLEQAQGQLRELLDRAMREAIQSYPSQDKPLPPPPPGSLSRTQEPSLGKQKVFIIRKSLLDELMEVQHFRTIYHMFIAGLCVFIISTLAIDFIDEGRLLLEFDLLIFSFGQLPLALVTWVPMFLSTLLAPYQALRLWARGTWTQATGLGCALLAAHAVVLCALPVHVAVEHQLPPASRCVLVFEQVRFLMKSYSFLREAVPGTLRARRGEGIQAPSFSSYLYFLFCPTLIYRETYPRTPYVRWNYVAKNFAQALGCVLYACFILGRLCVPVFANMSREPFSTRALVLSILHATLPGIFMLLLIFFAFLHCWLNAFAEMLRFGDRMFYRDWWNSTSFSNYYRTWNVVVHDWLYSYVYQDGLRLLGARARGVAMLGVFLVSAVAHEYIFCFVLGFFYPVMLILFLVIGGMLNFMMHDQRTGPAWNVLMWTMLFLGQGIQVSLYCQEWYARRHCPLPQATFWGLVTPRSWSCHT
The experiment in a line: In vitro inhibition of human Acyl coenzyme A:cholesterol acyltransferase 2 expressed in Hi5 cells at 125 uM. The following applies: BTI-TN-5B1-4.
Take `COc1ccc([C@@H]2O[C@H](c3ccc(OC(OC)C(OC)c4ccc5c(c4)OCO5)c(OC)c3)[C@H](C)[C@@H]2C)cc1OC` (some centres not stated): the inhibition turned out to be 45%.

`CCCCCCCOC(c1ccc2c(c1)OCO2)C(OC)Oc1ccc([C@H]2O[C@@H](c3ccc(OC)c(OC)c3)[C@@H](C)[C@H]2C)cc1OC` (some centres not stated) gave an inhibition of 26%.

In turn, `CCCCCCCCOC(c1ccc2c(c1)OCO2)C(OC)Oc1ccc([C@H]2O[C@@H](c3ccc(OC)c(OC)c3)[C@@H](C)[C@H]2C)cc1OC` (some centres not stated) gave an inhibition of 19%.

For `CCCCOC(c1ccc2c(c1)OCO2)C(OC)Oc1ccc([C@H]2O[C@@H](c3ccc(OC)c(OC)c3)[C@@H](C)[C@H]2C)cc1OC` (some centres not stated), the inhibition amounted to 28%.

As for `CCOC(c1ccc2c(c1)OCO2)C(OC)Oc1ccc([C@H]2O[C@@H](c3ccc(OC)c(OC)c3)[C@@H](C)[C@H]2C)cc1OC` (some centres not stated), the inhibition amounted to 29%.

`CCCCCCOC(c1ccc2c(c1)OCO2)C(OC)Oc1ccc([C@H]2O[C@@H](c3ccc(OC)c(OC)c3)[C@@H](C)[C@H]2C)cc1OC` (some centres not stated) had an inhibition of 33%.

Take `CCCCCCCCCOC(c1ccc2c(c1)OCO2)C(OC)Oc1ccc([C@H]2O[C@@H](c3ccc(OC)c(OC)c3)[C@@H](C)[C@H]2C)cc1OC` (some centres not stated): the inhibition was determined as 10%.

Compound `CCCOC(c1ccc2c(c1)OCO2)C(OC)Oc1ccc([C@H]2O[C@@H](c3ccc(OC)c(OC)c3)[C@@H](C)[C@H]2C)cc1OC` (some centres not stated) displayed an inhibition of 33%.

Consider `CCCCCOC(c1ccc2c(c1)OCO2)C(OC)Oc1ccc([C@H]2O[C@@H](c3ccc(OC)c(OC)c3)[C@@H](C)[C@H]2C)cc1OC` (some centres not stated), for which the inhibition is 33%.

The target in another assay is T3, Sterol O-acyltransferase 2 (Homo sapiens, UniProt O75908).
T3 sequence (O75908 whole entry): T2 sequence (whole entry)
The experiment in a line: In vitro inhibitory concentration against human Acyl coenzyme A:cholesterol acyltransferase 2 expressed in Hi5 cells. Further details: species or system BTI-TN-5B1-4.
Conditions: not given
The term IC50 denotes the concentration at which inhibition is half-maximal. In turn, `COc1ccc(C(O)C(C)Oc2ccc([C@H]3O[C@H](c4ccc(OC(C)C(O)c5ccc(OC)c(OC)c5)c(OC)c4)[C@H](C)[C@H]3C)cc2OC)cc1OC` (some centres not stated) came in with a concentration for half-maximal inhibition (IC50) of 8 µM.
